Data reported in patent US20030031688A1, “Cosmetic composition with improved skin moisturizing properties” (priority 2001, published 2003).

Assay: Moisture uptake of powder samples in controlled humidity chamber
Format: physicochemical
Settings: 65% relative humidity at 25° C.
Protocol: A mixture of urea and coenzyme Q10 (9:1 Wt./wt.)) was prepared as a dry blend of the raw materials by manually mixing urea (9 parts by weight) and coenzyme Q10 (1 part by weight), with mortar and pestle grinding as necessary, to provide an essentially homogeneous powder. The moisture-absorbing properties were determined based on the amount of moisture uptake over time. For comparison, the moisture-absorbing properties of powder samples of the unblended individual raw materials, i.e., urea alone and coenzyme Q10 alone, were measured.
The samples were placed in a controlled humidity chamber (65% relative humidity at 25° C.) and the mass of each sample was measured at various time points. The water uptake is reflected by the increase in mass over time.
The percentage values shown in Table 1 reflect the percentage increase in mass relative to the weight of the starting sample (prior to being placed in the controlled humidity chamber). The expected percentage values for the blend (“Expected”) were calculated on the basis of the fractional contribution of each component alone, as represented by the following equation: Expected %=(0.9×% measured for urea alone)+(0.1×% measured for Q10 alone).

Row | Structure (SMILES) | percentage increase in mass relative to the weight of the starting sample (water uptake) (time 5) [%] | percentage increase in mass relative to the weight of the starting sample (water uptake) (time 10) [%] | percentage increase in mass relative to the weight of the starting sample (water uptake) (time 15) [%] | percentage increase in mass relative to the weight of the starting sample (water uptake) (time 30) [%] | percentage increase in mass relative to the weight of the starting sample (water uptake) (time 45) [%] | percentage increase in mass relative to the weight of the starting sample (water uptake) (time 1 hr) [%]
1 | NC(N)=O [Urea] | 31.0 | 4.0 | 5.5 | 10.6 | 16.6 | 22.4
2 | COC1=C(OC)C(=O)C(C/C=C(\C)CC/C=C(\C)CC/C=C(\C)CC/C=C(\C)CC/C=C(\C)CC/C=C(\C)CC/C=C(\C)CC/C=C(\C)CC/C=C(\C)CCC=C(C)C)=C(C)C1=O [Product Q10, coenzyme Q10] | 1.0 | 0.1 | 0.5 | 1.5 | 2.4 | 3.1
